In patent US9107948B2, “Compounds for diagnosing diseases associated with the expression of MUC5AC” (Guerbet, priority 2010, dated 2015):
Several values for one entry are separate records, joined by “and”; a condition that tells them apart may be missing. Equal values may be shown once. Positions of bridges follow the written chain, without caps; N, C: chain ends. Residues, ends and D or L forms follow the SMILES beside them. No end group written: not given here.

Key:
[1] = target: rat MUC5AC glycoprotein; experiment: ELISA on MUC5AC purified from rat stomach; type: binding; conditions: ELISA (FIG. 2), read-out: apparent dissociation constant K*d
Experimental: (§1) The interaction between the peptide and MUC5AC is evaluated by means of an ELISA assay. The mucin MUC5AC (purified from pieces of human tumor on the basis of mucin extraction and purification protocols described in literature) is immobilized on a plate at the concentration of 12.5 μg/ml overnight at 4° C. The nonspecific sites are then saturated in a buffer enriched with milk, for 2 hours at 4° C. After several rinses, the peptide CPSIYPLLC (SEQ ID No: 2) coupled to biotin is incubated at increasing concentrations (10^−3M and 10^−6M) for 2 hours at 37° C. The biotinylated peptides bound to MUC5AC are visualized using goat anti-biotin antibodies incubated for one hour at ambient temperature and then diluted in PBS at 1 μg/ml. After removal of the unbound antibodies, a second incubation for one hour at ambient temperature is carried out in the presence of peroxidase-labeled anti-goat antibodies at 0.2 μg/ml, diluted in PBS supplemented with 0.1% of Tween-20. The peroxidase coloration reaction is carried out in the presence of H2O2-enriched ABTS. The measurement of the OD at 405 nm makes it possible to calculate the K*d MUC5AC value. The interaction between the peptide and MUC5AC is also evaluated by means of the previously described ELISA assay on the mucin MUC5AC purified beforehand from mouse and rat stomach.

[2] = target: mouse MUC5AC glycoprotein; experiment: ELISA on MUC5AC purified from mouse stomach; type: binding; conditions: ELISA (FIG. 2), read-out: apparent dissociation constant K*d
Experimental: as §1

[3] = target: T1, MUC5AC (Homo sapiens, UniProt P98088); experiment: Labeling of tissue sections with biotinylated peptide (specificity); conditions: FIG. 4
T1 construct: Sections of healthy gastric and colonic mucosae and of human colorectal adenoma; from tissue; host or cells: paraffin sections of human gastric epithelium and colorectal adenoma
Experimental: (§2) Sections of healthy gastric and colonic mucosae and of human colorectal adenoma (5 μm thick) were fixed for 24 h with 4% paraformaldehyde and embedded in paraffin. For the labeling, the sections were first of all deparaffinized in toluene and rehydrated in 95% alcohol. After rinsing in water, the slides are brought to boiling for 10 minutes in a citrate buffer (50 mM, pH 4). Once the temperature of the buffer has returned to 25-30° C., the slides are then rinsed with PBS and then successively incubated for 15 minutes in a 0.15% hydrogen peroxide (H2O2) solution and a kit for blocking the endogenous biotin for 1 h. The sections are then blocked using a milk-enriched buffer for 1 h at ambient temperature, and are then incubated at 4° C. for 18 h with the peptides at various concentrations (20 μM, 10 μM, 1 μM, 0.2 μM, 0.04 μM) or the antibodies (MUC5AC: PM8 at a 1/100 dilution and MUC2: Lum2-3 at a 1/100 dilution) diluted in PBS. The biotinylated peptides bound to the target are visualized using goat anti-biotin antibodies incubated for one hour at ambient temperature and then diluted in PBS at 1 μg/ml. A second incubation for one hour at ambient temperature is carried out in the presence of peroxidase-labeled anti-goat antibodies at 0.2 μg/ml diluted in PBS supplemented with 0.1% of Tween-20. […]

[4] = target: T2, MUC2 glycoprotein (Homo sapiens, UniProt Q02817); experiment: Labeling of colonic adenoma sections, recognition of MUC2; conditions: FIG. 4
T2 construct: Sections of healthy gastric and colonic mucosae and of human colorectal adenoma; from tissue; host or cells: paraffin sections of human colonic adenoma
Experimental: as §2

[5] = tested on: HT29-5M21 cells (MUC5AC cells); experiment: USPIO binding test on colonic cell model, iron assay by relaxometry; type: cell-based, human; conditions: increasing concentrations 1/2/4/8 mM iron, 1 H at 37° C.
Experimental: (§3) After 21 days of culture for HT29-5M21 cells (MUC5AC cells), the literature reports that MUC5AC is massively expressed. […] The cells are rinsed with PBS at 4° C. and then directly brought into contact with 0.5 ml of USPIO diluted in PBS, for 1 H at 37° C. (incubator, 5% CO2). The USPIOs are tested at various iron concentrations of 1/2/4/8 mM on each of the lines. After the supernatant has been drawn off, the cells are washed twice with PBS and then scraped so as to subsequently be taken up with 250 μl of PBS (twice). The suspensions are subsequently freeze-dried and then taken up with 100 μl of a 5N HCl solution for 4 H at 80° C. in a water bath. The assay is then carried out using Paris reagent, before carrying out the relaxometry (Bruiser Minispec 60 MHz). The secretion of MUC5AC by the HT29 model and the absence of secretion with HCT116 were verified in the study.

[6] = tested on: HCT116 cells (control cells, MUC5AC-negative); experiment: USPIO binding test on colonic control cells, iron assay by relaxometry; type: cell-based, human; conditions: control cells HCT116, 1/2/4/8 mM iron, 1 H at 37° C.
Experimental: as §3

[7] = tested on: MUC5AC-positive tumor (HT29 5M21 xenograft); experiment: Molecular MRI (RARE, 7T) of tumor in mice bearing MUC5AC-positive tumor; type: in vivo
Experimental: (§4) The selected imaging parameters are the following: • RARE (rapid acquisition with relaxation enhancement) sequence (7T) • TR/TEeff=3000/48.7 ms, • RARE factor=4, • NEX=4, • Matrix=256×256 • FOV=2.3 cm • slice thickness=1 mm • 20 axial slices • spatial resolution=90 μm • acquisition time=12 min 48 s Mice: • bearing an MUC5AC-positive tumor were injected with PEG750-C60c (100 μmol/kg), • bearing an MUC5AC-positive tumor were injected with the control compound (100 μmol/kg) and • bearing an MUC5AC-negative tumor were injected with PEG750-C60c (100 μmol/kg).

[8] = tested on: MUC5AC-negative tumor (HCT116 xenograft); experiment: Molecular MRI (RARE, 7T) of tumor in mice bearing MUC5AC-negative tumor; type: in vivo
Experimental: as §4

[9] = tested on: mucin MUC5AC in the stomach; experiment: Molecular MRI (RARE, 7T) of the stomach of tumor-bearing mice; type: in vivo; conditions: mice bearing MUC5AC-positive or -negative tumor
Experimental: as §4
MUC5AC. […] Indeed, using PEG750-C60c at equal concentration in animals having tumors with an opposite MUC5AC expression profile, but having the same mucin secretion characteristic in the stomach, a differential response was clearly observed in the tumor, but not in the stomach.

[10] = Plasma kinetics: iron concentration by relaxometry in plasma of imaged mice; type: in vivo; conditions: 1 h-1 h 30 after injection
From the text: IV.2 Plasma Kinetics: Calculation of the Concentration of USPIO Contained in the Plasma of the Imaged Mice
It can be observed in table 3 that the iron concentrations are proportional to the dose of product injected.

[11] = tested on: HT295M21 and HCT116 xenografts; experiment: Detection of USPIOs on tumor xenograft tissue after in vivo injection (anti-PEG antibody); set-up: species or system mice
From the text: (§5) In the experiments carried out, the PEG750-C60C was detected using the anti-PEG antibody on HT295M21 xenograft, on HCT116 xenograft and on a section of mouse stomach without counterstaining. The control compound was detected on a section of mouse stomach without counterstaining. The sections were visualized in parallel with an anti-MUC5AC antibody on HT295M21 and HCT116.

[12] = tested on: mouse gastric tissue; experiment: Detection of USPIOs on mouse stomach sections after in vivo injection (anti-PEG antibody); conditions: section of mouse stomach
From the text: as §5

[13] = Relaxivity measurements; type: physicochemical; conditions: 37° C.
Experimental: […] The longitudinal relaxation time T1 is measured using an inversion recovery sequence and the transverse relaxation time T2 is measured using a CPMG technique.
The relaxation rates R1 (=1/T1) and R2 (=1/T2) were calculated for various concentrations of total metal (ranging from 0.1×10^−3 to 1×10^−3 mol/l) in aqueous solution at 37° C. The correlation between R1 or R2 as a function of the concentration is linear, and the slope represents the relaxivity r1 (R1/C) or r2 (R2/C) expressed as (1/second)×(1/mmol/l), i.e. (mM^−1·s^−1).

[14] = Particle size (PCS) and magnetic characterization; type: physicochemical
Experimental: Determined by PCS (Malvern 4700 instrument, laser 488 nm at 90°) on a sample diluted to ˜1 millimolar with water for injection filtered through 0.22 μm.

In the case of CC[C@H](C)[C@@H]1NC(=O)[C@H](CO)NC(=O)[C@@H]2CCCN2C(=O)[C@@H](N)CSSC[C@@H](C(N)=O)NC(=O)[C@H](CC(C)C)NC(=O)[C@H](CC(C)C)NC(=O)[C@@H]2CCCN2C(=O)[C@H](Cc2ccc(O)cc2)NC1=O [peptide CPSIYPLLC, Cys-Pro-Ser-He-Tyr-Pro-Leu-Leu-Cys] (H-CPSIYPLLC-NH2; disulfide 1-9; N-terminus and C-terminus assumed), the Kd [1] is reported as 659 µM, the Kd [2] is reported as 549 µM and the “labeling of sections of healthy human gastric epithelia” value [3] is reported as “demonstrate the specificity”. For the same compound, the “recognition of the MUC2 glycoprotein on sections of colonic adenoma” value [4] was “absence of recognition”.
With “PEG750-C60c (CPSIYPLLC; not fully specified; cysteine pairing not given here; also: PEG750 attached, site not given here, coupled to iron particle)” the “iron concentration on the cells” value [5] was “significantly increases”, the “iron concentration on the cells” value [6] was “does not change proportionally” and the “signal variation in the tumor (ΔSI)” value ([7]; 20 μmol of iron/kg, post-contrast) was −10%. The “signal variation in the tumor (ΔSI)” value ([7]; 100 μmol of iron/kg) was −15%, the “MRI image contrast of the tumor” value ([7]; 100 μmol/kg) was “negative contrast image” and the “MRI image contrast of the tumor” value ([8]; 100 μmol/kg) was “no variation in contrast”. For the same compound, the “change of signal in the tumor” value ([8]; same conditions (20 and 100 μmol of iron/kg)) was “no change or a slight increase”, the “MRI image of the gastric region in contact with the lumen” value [9] was “clear darkening” and the “Iron concentration in the plasma” value ([10]; MUC5AC-negative mice, 20 μmol Fe/kg) was 471.5 µmol/L. The “Iron concentration in the plasma” value ([10]; MUC5AC-negative mice, 20 μmol Fe/kg, listed as PEG750-C60C) was 442.5 µmol/L and 350.7 µmol/L and 337 µmol/L, the “Iron concentration in the plasma” value ([10]; MUC5AC-negative mice, 100 μmol Fe/kg) was 2806 µmol/L and 3638 µmol/L and the “Iron concentration in the plasma” value ([10]; MUC5AC-positive mice, 20 μmol Fe/kg) was 486.8 µmol/L and 380 µmol/L. The “Iron concentration in the plasma” value ([10]; MUC5AC-positive mice, 20 μmol Fe/kg, listed as PEG750-C60C) was 312.4 µmol/L, the “Iron concentration in the plasma” value ([10]; MUC5AC-positive mice, 40 μmol Fe/kg) was 909.6 µmol/L and the “Iron concentration in the plasma” value ([10]; MUC5AC-positive mice, 100 μmol Fe/kg) was 1555.5 µmol/L. For the same compound, the “Iron concentration in the plasma” value ([10]; MUC5AC-positive mice, 100 μmol Fe/kg, listed as PEG750-C60C) was 2590 µmol/L and 3871 µmol/L and 1959 µmol/L, the “accumulation in the tumors” value [11] was “only when they secrete MUC5AC” and the “labeling / accumulation in the mouse gastric tissue” value [12] was “specific labeling”. The “relaxivity r1” value ([13]; 20 MHz) was 30.54 s⁻¹ mM⁻¹, the “relaxivity r1” value ([13]; 60 MHz) was 14.94 s⁻¹ mM⁻¹ and the Magnetic diameter [14] was 7.2 nm. For the same compound, the “Magnetization at saturation (magn.)” value [14] was 70 Am^2/Kg and the “hydrodynamic diameter Z ave (PCS)” value [14] was 28 nm.
